The values below come from PMC8333425, “Discovery of a dual Ras and ARF6 inhibitor from a GPCR endocytosis screen” (Nature Communications, 2021).

One experiment deals with T1, ARF6 (Homo sapiens, UniProt P62330).
T1 construct: expressed in transfected cells; host or cells: HEK293SL
In words: GST-GGA3-PBD pull-down of EGFR-mediated ARF6 activation in MDA-MB-231 cells. It counts as cell-based. Particulars: 50 μM. As for the experimental part:
Activation of ARF1, ARF6, Ras, and Rho were assessed by using GST pull-down assays. HEK293SL cells were transiently transfected with 3 µg AT1R-flag only (Ras and Rho) or along with 500 ng HA-ARF6 (ARF6) or HA-ARF1 (ARF1). Forty-eight hours later, the HEK293 or MDA-MB-231 cells were serum-starved for 4 h with DMEM containing 20 mM HEPES then pretreated with DMSO or Rasarfin (50 µM) for 30 min. Cells were then stimulated with 1 µM AngII or 100 ng/ml EGF for 0 and 2 min. Cells were then washed once with ice-cold PBS and lysed for 30 min at 4 °C in 300 µl of lysis buffer (pH 7.5, 50 mM Tris-HCl, 140 mM NaCl, 5 mM MgCl2, 10% glycerol (v/v), 1% Nonidet P-40 (v/v), 1 mM dithiothreitol) supplemented with protease inhibitors (1 mM phenylmethyl-sulfonyl fluoride (PMSF), 10 µg/ml leupeptin, 5 µg/ml aprotinin, 1 µg/ml pepstatin A) and phosphatase inhibitors (20 mM NaF, 0.025 mM pervanadate). The samples were cleared by centrifugation and 30 µl (cell lysates) was kept for assessing total protein contents. The remaining was transferred to fresh tubes with 20 µg of either GST, GST-GGA3-PBD, GST-Raf1-RBD or GST-Rhotekin-RBD coupled to glutathione resin and rotated for 1–2 h at 4 °C. […] ImageLab 5.2 software was used to quantify the digital blots as fold of the amount of pulled down protein over total protein. […]

In experiment [1] the test system is β-arrestin1 recruitment to AT1R. In words: BRET recruitment of β-arrestin1 to AT1R. It counts as cell-based, human. The conditions noted are these: for AngII-promoted BRET, β-arrestin1 (Barr1) recruitment to AT1R: Comp 21 50 μM, individual experiments. As to the method: HEK293SL cells were seeded at a density of 7.5 × 10^5 cells per 100-mm dish and 24 h later, transiently transfected as such. For receptor internalization experiments, cells were transfected with 0.12 μg AT1R-RlucII, B2R-RlucII, or β2AR-RlucII and 0.48 μg of either rGFP-CAAX (to assess removal from the PM) or rGFP-FYVE (to assess accumulation in the endosomes). For β-arrestin recruitment assays, cells were transfected with 0.48 μg of receptor-YFP along with 0.12 μg of β-arrestin-RlucII. For β-arrestin/AP-2 binding experiments, cells were transfected with 1 μg Flag-AT1R, 1 μg β2-Adaptin-YFP, and 0.12 μg β-arrestin2-RlucII. For G protein activation, cells were transfected with 3 μg of sp-Flag-AT1R along with either 4.5 μg of the Gαq-polycistronic BRET sensor or 0.24 μg of the Gαi3-RlucII and 0.6 μg of GFP10-Gγ2 and Gβ1 sensors or 0.12 μg PKN-RBD-RlucII and 0.48 μg of rGFP-CAAX. For PKC activation, cells were transfected with 3 μg of sp-Flag-AT1R and 0.18 μg of the PKC sensor. For GTPase activation experiments, cells were transfected with 1 μg Flag-AT1R, 0.48 μg of rGFP-CAAX, and either 0.12 μg of GGA3-PBD-RlucII, PAK-CRIB-RlucII or Raf-RBD-RlucII. For biosensor validation experiments, cells were additionally transfected with 500 ng Flag-K-Ras-WT, Flag-K-Ras-G12V, Flag-K-Ras-SOS-CAAX, HA-ARF6-WT, HA-ARF6-T27N, Myc-Rac1-WT, Myc-Rac1-Q61L or Myc-Rac1-T17N. For PI3K/Akt activation experiments, cells were transfected with 0.48 μg of rGFP-CAAX and 0.12 μg of Akt (PH)-RlucII. After 18 h of transfection, the media was replaced and cells were divided for subsequent experiments. Cells were detached and seeded onto poly-L-ornithine-coated 96-well flat white bottom plates (BrandTech Scientific) at a density of 2.5 × 10^4 cells per well in media. The next day, cells were washed once with Tyrode’s buffer (140 mM NaCl, 2.7 mM KCl, 1 mM CaCl2, 12 mM NaHCO3, 5.6 mM D-glucose, 0.5 mM MgCl2, 0.37 mM NaH2PO4, 25 mM HEPES, pH 7.4) and left in Tyrode’s buffer. For kinetics of β-arrestin recruitment or β-arrestin binding to receptor and AP-2 experiments, cells were serum starved for 30 min, pretreated with 21 (50 µM) or Barbadin (100 µM) for 30 min, stimulated with 100 nM AngII or 1 µM BK and BRET signals were monitored at indicated times using a Victor X Light plate reader (PerkinElmer). Coelenterazine H (final concentration of 5 µM) was added 3–5 min prior to BRET measurements. Filter set was 460/80 nm and 535/30 nm for detecting the RlucII Renilla luciferase (donor) and YFP (acceptor) light emissions, respectively. The BRET ratio was determined by calculating the ratio of the light emitted by YFP over the light emitted by the RlucII. For G protein activation, cells were serum starved, pretreated with compounds for 30 min, stimulated with 100 nM AngII for 2 min (Gαq, Gαi3, and Rho sensors) or 5 min (PKC sensor). For the kinetics of GTPase and PI3K/Akt activation, cells were serum starved, pretreated with 21 (50 µM) or Wortmannin (200 nM) for 30 min, stimulated with ligand (100 nM AngII or 100 ng/ml EGF) and BRET signals were monitored at indicated times. For concentration-response curves, cells were serum-starved, pretreated with various concentrations of compounds for 30 min and stimulated with ligand (100 nM AngII, 1 µM BK, 10 µM Isoproterenol (Iso) or 100 ng/ml EGF) in Tyrode’s buffer for 30 min for receptor internalization, 10 min for ARF6, 2 min for Rac and Rho activation and 5 min for Ras activation and PI3K/Akt activation. BRET signals were monitored using a Synergy2 (BioTek) microplate reader and coelenterazine 400a (final concentrations of 5 µM) added 3–5 min prior to BRET measurements. Filter set was 410/80 nm and 515/30 nm for detecting the RlucII Renilla luciferase (donor) and rGFP/GFP10 (acceptor) light emissions, respectively. The BRET ratio was determined by calculating the ratio of the light emitted by rGFP/GFP10 over the light emitted by the RlucII.

Another experiment deals with AT1R. Particulars: Barbadin 100 µM; cited from earlier work.

Values joined by “and” are separate entries in the source; they are usually repeats but may differ in a detail not shown here. Equal values may be shown once.

T1 sequence (P62330 whole entry, species assumed): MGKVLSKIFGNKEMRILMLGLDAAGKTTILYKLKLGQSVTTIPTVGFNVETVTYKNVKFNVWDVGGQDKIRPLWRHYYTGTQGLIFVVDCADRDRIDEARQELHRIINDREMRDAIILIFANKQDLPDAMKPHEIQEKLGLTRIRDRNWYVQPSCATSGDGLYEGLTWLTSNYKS

As for `CC(C)C(=O)N1CCN(c2ccc(NC(=O)c3cc4ccccc4o3)cc2Cl)CC1` [Compound 21], at ARF6, the “ARF6 activity in MDA-MB-231 cells (pull-down)” value was “inhibited”. The “β-arrestin1 recruitment to AT1R at the PM” value in experiment [1] (50 μM) is listed as “did not preclude”. The “AngII-promoted BRET, β-arrestin1 (Barr1) recruitment to AT1R” value in experiment [1] (time 0 min) was 0; in experiment [1] (time 5 min) it was 0.07621 and 0.08371 and 0.04185; in experiment [1] (time 10 min), 0.1164 and 0.1114 and 0.05569; in experiment [1] (time 15 min), 0.1198 and 0.1209 and 0.06044; in experiment [1] (time 30 min), 0.1393 and 0.143 and 0.07152; in experiment [1] (time 60 min) it was 0.1361 and 0.1426 and 0.1043.
Turning to `Nn1cnc2scc(-c3ccc(Cc4ccccc4)cc3)c2c1=O` [Barbadin, reference compound], the receptor internalization entry in the experiment on AT1R is “blocked receptor internalization”.
